Measurements published in patent US12409157B2, “Mitofusin activators and methods of use thereof” (Mitochondria Emotion, Inc., priority 2019, dated 2025).
Entries after “also recorded” stand apart in the source; their conditions may differ.

Columns and labels:
[1] = test system: T1, mitofusin; experiment: mitofusin-dependent mitochondrial elongation (aspect ratio), functional screening; format: cell-based, mouse; details: DMSO vehicle, Reg C positive control; FIGS. 2-5
T1 construct: EC50 Mito Elongation; other: benchmark <30; unit given as nm; results of functional screening (mitochondrial elongation); other: DMSO vehicle, Reg C positive control

[2] = Plasma stability, human; format: in vitro ADME; details: H
[3] = Plasma stability, mouse; format: in vitro ADME; details: M
[4] = target: T2, MFN2 (Homo sapiens, UniProt O95140); experiment: conformational opening of mitofusin 2; format: biochemical; details: FIG. 6B
T2 sequence (O95140 1-757): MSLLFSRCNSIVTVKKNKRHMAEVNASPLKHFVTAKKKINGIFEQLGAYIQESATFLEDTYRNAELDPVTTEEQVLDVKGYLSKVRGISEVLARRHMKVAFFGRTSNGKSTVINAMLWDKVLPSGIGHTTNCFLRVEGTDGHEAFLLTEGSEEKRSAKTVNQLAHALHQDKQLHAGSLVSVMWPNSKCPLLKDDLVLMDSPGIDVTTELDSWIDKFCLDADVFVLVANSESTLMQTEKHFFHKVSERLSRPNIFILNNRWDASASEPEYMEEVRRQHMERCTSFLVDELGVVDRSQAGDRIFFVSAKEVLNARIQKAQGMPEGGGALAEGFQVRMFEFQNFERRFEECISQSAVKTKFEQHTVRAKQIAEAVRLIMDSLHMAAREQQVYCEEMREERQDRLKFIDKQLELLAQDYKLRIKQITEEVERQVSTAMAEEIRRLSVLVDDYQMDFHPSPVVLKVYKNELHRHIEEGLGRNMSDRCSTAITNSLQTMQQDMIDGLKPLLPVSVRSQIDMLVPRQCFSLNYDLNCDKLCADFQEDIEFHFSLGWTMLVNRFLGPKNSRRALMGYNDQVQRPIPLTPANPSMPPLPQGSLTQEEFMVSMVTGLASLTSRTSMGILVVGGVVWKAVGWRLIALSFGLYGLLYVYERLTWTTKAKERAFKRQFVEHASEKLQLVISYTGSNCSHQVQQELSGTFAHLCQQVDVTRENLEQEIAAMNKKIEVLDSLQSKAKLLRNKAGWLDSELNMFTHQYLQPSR

[5] = test system: mitofusin; details: Rocha et al 2018 Science 360:336; read-out: EC50 as mitofusin activator; cited from earlier work

| Structure (SMILES) | results of functional screening (mitochondrial elongation) [1] | EC50 [5] | further results |
| --- | --- | --- | --- |
| CC1CC(O)CCC1NC(=O)NCCCCc1ccccc1 (stereo not shown) [MiM5, 1-(4-Hydroxy-2-methylcyclohexyl)-3-(4-phenylbutyl)urea] | highly active | – | – |
| O=C(CCCCCc1ccccn1)NC1CCC(O)CC1 (stereo not shown) [MiM111 N1, (4-Hydroxycyclohexyl)-6-(pyridin-2-yl)hexanamide] | All compounds except MiM111 N1 were highly active | – | – |
| O=C(CCCCCc1ccccc1)NC1CCC(O)CC1 (stereo not shown) [MiM111, N-(4-hydroxycyclohexyl)-6-phenylhexanamide] | – | – | Plasma Stability (120 min.) [2]: 87%; Plasma Stability (120 min.) [3]: 100%; conformational opening of MFN2 [4]: induces an open conformation of its target MFN2; also recorded: conformational opening of MFN 2 mimics that of an agonist peptide |
| CC1CCCCC1NC(=O)NCCSCc1ccccc1 (stereo not shown) [compound A, 1-[2-(benzylsulfanyl)ethyl]-3-(2-methylcyclohexyl)urea] | – | ~30 nM | – |
| CC(Sc1nnc(C2CC2)n1-c1ccccc1)C(=O)Nc1sc2c(c1C(N)=O)CCC2 (stereo not shown) [compound B, 2-{2-[(5-cyclopropyl-4-phenyl-4H-1,2,4-triazol-3-yl)sulfanyl]propanamido}-4H,5H,6H-cyclopenta[b]thiophene-3-carboxamide] | – | ~10 nM | – |
